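Growth conditions: 96-well plates. Treatment: test compound, 48 hours, 5 concentrations. Analysis: linear interpolation between bracketing concentrations; unreached endpoints set to highest concentration. TGI: concentration producing complete growth inhibition.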
Assays:
Experiment in all cases: NCI tumour cell line growth inhibition, 48 h
UO-31 renal = system: UO-31 renal
DMS 273 small cell lung = system: DMS 273 small cell lung
NCI-H460 lung = system: NCI-H460 lung
KM20L2 colon = system: KM20L2 colon
HCC-2998 colon = system: HCC-2998 colon
SNB-78 CNS = system: SNB-78 CNS
UACC-62 melanoma = system: UACC-62 melanoma
IGROV1 ovarian = system: IGROV1 ovarian
OVCAR-4 ovarian = system: OVCAR-4 ovarian
UACC-257 melanoma = system: UACC-257 melanoma
OVCAR-5 ovarian = system: OVCAR-5 ovarian
SNB-75 CNS = system: SNB-75 CNS
SK-MEL-2 melanoma = system: SK-MEL-2 melanoma
SK-MEL-5 melanoma = system: SK-MEL-5 melanoma
CAKI-1 renal = system: CAKI-1 renal
HCT-116 colon = system: HCT-116 colon
NCI/ADR-RES ovarian = system: NCI/ADR-RES ovarian
SW-620 colon = system: SW-620 colon
DLD-1 colon = system: DLD-1 colon
SF-268 CNS = system: SF-268 CNS
P388/ADR leukemia = system: P388/ADR leukemia
CCRF-CEM leukemia = system: CCRF-CEM leukemia
HOP-62 NSCLC = system: HOP-62 NSCLC
K-562 leukemia = system: K-562 leukemia
SF-295 CNS = system: SF-295 CNS
NCI-H226 lung = system: NCI-H226 lung
MOLT-4 leukemia = system: MOLT-4 leukemia
A498 renal = system: A498 renal
MCF7 breast = system: MCF7 breast
HOP-92 NSCLC = system: HOP-92 NSCLC
KM12 colon = system: KM12 colon
SK-OV-3 ovarian = system: SK-OV-3 ovarian
COLO 205 colon = system: COLO 205 colon
OVCAR-3 ovarian = system: OVCAR-3 ovarian
P388 leukemia = system: P388 leukemia
NCI-H522 lung = system: NCI-H522 lung
SN12K1 renal = system: SN12K1 renal
DMS 114 small cell lung = system: DMS 114 small cell lung
RPMI-8226 leukemia = system: RPMI-8226 leukemia
HT29 colon = system: HT29 colon
SF-539 CNS = system: SF-539 CNS
RXF 393 renal = system: RXF 393 renal
M19-MEL melanoma = system: M19-MEL melanoma
NCI-H23 lung = system: NCI-H23 lung
HOP-18 NSCLC = system: HOP-18 NSCLC
OVCAR-8 ovarian = system: OVCAR-8 ovarian
SN12C renal = system: SN12C renal
SNB-19 CNS = system: SNB-19 CNS
HCT-15 colon = system: HCT-15 colon
A549 NSCLC = system: A549 NSCLC
MALME-3M melanoma = system: MALME-3M melanoma
EKVX NSCLC = system: EKVX NSCLC
U251 CNS = system: U251 CNS
XF 498 CNS = system: XF 498 CNS
LXFL 529 NSCLC = system: LXFL 529 NSCLC
786-0 renal = system: 786-0 renal
SK-MEL-28 melanoma = system: SK-MEL-28 melanoma
TK-10 renal = system: TK-10 renal
SR leukemia = system: SR leukemia
M14 melanoma = system: M14 melanoma
ACHN renal = system: ACHN renal
LOX IMVI melanoma = system: LOX IMVI melanoma
HL-60(TB) leukemia = system: HL-60(TB) leukemia
RXF-631 renal = system: RXF-631 renal

COC(=O)[C@@H]1c2cc3c(c(O)c2[C@@H](OC)C[C@@]1(C)O)C(=O)c1c(O)cc2c(c1C3=O)OC1O[C@@]2(C)[C@H](O)[C@@H](N(C)C)[C@@H]1O
TGI (UO-31 renal): 3120 nM | TGI (DMS 273 small cell lung): 779 nM | TGI (NCI-H460 lung): 488 nM | TGI (KM20L2 colon): 794 nM | TGI (HCC-2998 colon): 1370 nM | TGI (SNB-78 CNS): 4540 nM | TGI (UACC-62 melanoma): 534 nM | TGI (IGROV1 ovarian): 1700 nM | TGI (OVCAR-4 ovarian): 1760 nM | TGI (UACC-257 melanoma): 1210 nM | TGI (OVCAR-5 ovarian): 2160 nM | TGI (SNB-75 CNS): 977 nM | TGI (SK-MEL-2 melanoma): 727 nM | TGI (SK-MEL-5 melanoma): 1050 nM | TGI (CAKI-1 renal): 749 nM | TGI (HCT-116 colon): 1580 nM | TGI (NCI/ADR-RES ovarian): 4220 nM | TGI (SW-620 colon): 2210 nM | TGI (DLD-1 colon): 8830 nM | TGI (SF-268 CNS): 3020 nM | TGI (P388/ADR leukemia): 15000 nM | TGI (CCRF-CEM leukemia): > 150000 nM | TGI (HOP-62 NSCLC): 1060 nM | TGI (K-562 leukemia): 7310 nM | TGI (SF-295 CNS): 970 nM | TGI (NCI-H226 lung): 877 nM | TGI (MOLT-4 leukemia): > 150000 nM | TGI (A498 renal): 764 nM | TGI (MCF7 breast): 6480 nM | TGI (HOP-92 NSCLC): 140 nM | TGI (KM12 colon): 2340 nM | TGI (SK-OV-3 ovarian): 3940 nM | TGI (COLO 205 colon): 1980 nM | TGI (OVCAR-3 ovarian): 1690 nM | TGI (P388 leukemia): 2360 nM | TGI (NCI-H522 lung): 1900 nM | TGI (SN12K1 renal): 1410 nM | TGI (DMS 114 small cell lung): 633 nM | TGI (RPMI-8226 leukemia): > 150000 nM | TGI (HT29 colon): 2000 nM | TGI (SF-539 CNS): 7480 nM | TGI (RXF 393 renal): 1370 nM | TGI (M19-MEL melanoma): 880 nM | TGI (NCI-H23 lung): 1490 nM | TGI (HOP-18 NSCLC): 1340 nM | TGI (OVCAR-8 ovarian): 2050 nM | TGI (SN12C renal): 2100 nM | TGI (SNB-19 CNS): 2370 nM | TGI (HCT-15 colon): 2230 nM | TGI (A549 NSCLC): 1450 nM | TGI (MALME-3M melanoma): 2130 nM | TGI (EKVX NSCLC): 1330 nM | TGI (U251 CNS): 1920 nM | TGI (XF 498 CNS): 660 nM

CC(=O)O[C@H]1[C@@H]2[C@@H]3[C@@H](C[C@H]1C)[C@@H](C)CO[C@@]1(C)CC/C=C(/C)C[C@@H]2O[C@@H]31
TGI (UO-31 renal): > 100000 nM | TGI (DMS 273 small cell lung): > 100000 nM | TGI (NCI-H460 lung): > 100000 nM | TGI (KM20L2 colon): > 100000 nM | TGI (HCC-2998 colon): > 100000 nM | TGI (UACC-62 melanoma): > 100000 nM | TGI (IGROV1 ovarian): > 100000 nM | TGI (OVCAR-4 ovarian): > 100000 nM | TGI (LXFL 529 NSCLC): > 100000 nM | TGI (UACC-257 melanoma): > 100000 nM | TGI (OVCAR-5 ovarian): > 100000 nM | TGI (SNB-75 CNS): > 100000 nM | TGI (SK-MEL-2 melanoma): > 100000 nM | TGI (SK-MEL-5 melanoma): > 100000 nM | TGI (CAKI-1 renal): > 100000 nM | TGI (HCT-116 colon): > 100000 nM | TGI (SW-620 colon): > 100000 nM | TGI (DLD-1 colon): > 100000 nM | TGI (SF-268 CNS): > 100000 nM | TGI (786-0 renal): > 100000 nM | TGI (CCRF-CEM leukemia): > 100000 nM | TGI (HOP-62 NSCLC): > 100000 nM | TGI (K-562 leukemia): > 100000 nM | TGI (SF-295 CNS): > 100000 nM | TGI (NCI-H226 lung): > 100000 nM | TGI (MOLT-4 leukemia): > 100000 nM | TGI (A498 renal): > 100000 nM | TGI (HOP-92 NSCLC): > 100000 nM | TGI (KM12 colon): > 100000 nM | TGI (SK-MEL-28 melanoma): > 100000 nM | TGI (TK-10 renal): > 100000 nM | TGI (SK-OV-3 ovarian): > 100000 nM | TGI (SR leukemia): > 100000 nM | TGI (COLO 205 colon): > 100000 nM | TGI (M14 melanoma): > 100000 nM | TGI (OVCAR-3 ovarian): > 100000 nM | TGI (NCI-H522 lung): > 100000 nM | TGI (ACHN renal): > 100000 nM | TGI (DMS 114 small cell lung): > 100000 nM | TGI (RPMI-8226 leukemia): > 100000 nM | TGI (LOX IMVI melanoma): > 100000 nM | TGI (HT29 colon): > 100000 nM | TGI (SF-539 CNS): > 100000 nM | TGI (RXF 393 renal): > 100000 nM | TGI (M19-MEL melanoma): > 100000 nM | TGI (NCI-H23 lung): > 100000 nM | TGI (HL-60(TB) leukemia): > 100000 nM | TGI (HOP-18 NSCLC): > 100000 nM | TGI (OVCAR-8 ovarian): > 100000 nM | TGI (SN12C renal): > 100000 nM | TGI (SNB-19 CNS): > 100000 nM | TGI (HCT-15 colon): > 100000 nM | TGI (A549 NSCLC): > 100000 nM | TGI (RXF-631 renal): > 100000 nM | TGI (MALME-3M melanoma): > 100000 nM | TGI (EKVX NSCLC): > 100000 nM | TGI (U251 CNS): > 100000 nM | TGI (XF 498 CNS): > 100000 nM

Reference: PubChem BioAssay (NCI)
